The target in one data set is T1, human CaMKIIδ (Homo sapiens, UniProt Q13557).
T1 construct: Full-length, glutathione-S-transferase(GST)-tagged, human CaMKIIδ was purchased from Carna Biosciences; purchased Carna Biosciences (CaMKIIδ); Wako Pure Chemical Industries (calmodulin) 02-111
The experiment in a line: In vitro CaMKII inhibitory activity (binding assay, TR-FRET). The note with it: activity ranks. Put shortly:
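TR-FRET displacement of a BODIPY probe (300 nM) from 0.5 nM full-length GST-tagged human CaMKIIδ, with Tb-anti-GST, calmodulin and 1 mM CaCl2 in pH 7.6 HEPES/MgCl2 buffer. Read after 1 hr at room temperature over an eight-point 4-fold series. IC50 by logistic fit, with 3 μM parent compound as the 100% control.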

Data set [1] has as its system phospholamban (Thr17, PLN) phosphorylation, cardiac CaMKII. As to the kind of experiment: In vivo cardiac CaMKII inhibition (oral administration), P-PLN Western blot. The following applies: male CD (SD) IGS rat left ventricle, 30 mg/kg p.o., 4 hr after administration, in comparison with vehicle-treated group, read-out: Reduction rate of P-PLN. The method, then:
Evaluation of In Vivo Cardiac CaMKII Inhibition (Oral Administration)
To evaluate potency of test compounds to inhibit cardiac CaMKII kinase in vivo, phosphorylation levels of CaMKII-specific sites of phospholamban (Thr17, PLN) were measured in the heart of rats administered orally with test compounds.
Test compounds were suspended in 0.5% [w/v]methylcellulose/water solution and administered (30 mg/kg) to male CD (SD) IGS rat (6-8 weeks old, n=4) by the p.o. route (5 mL/kg). At 4 hours after the administration, rats were sacrificed and the hearts were harvested. After washing the isolated hearts with ice-cold saline, connective tissues were removed on ice, and the isolated left ventricle were frozen into liquid nitrogen gas and stored at −80° C.
The left ventricle samples were homogenized in RIPA-buffer containing phosphatase inhibitors and protease inhibitors. Samples were analyzed by Western blotting using anti-P-PLN (Thr17, Santa Cruz Biotechnology, sc-17024-R) antibody. The band intensities were quantified using an imaging system and were normalized relative to the vehicle-treated group.
(A western blot detects proteins with antibodies after separation by electrophoresis.)

Another data set has as its system HepG2 cells. As to the kind of experiment: In vitro cytotoxicity (cellular ATP content, CellTiter-Glo). The following applies: 33 μM, 72 hr incubation. The class given is cell-based. The method, then: Evaluation of In Vitro Cytotoxicity
To evaluate in vitro cytotoxicity of test compounds, % ATP reduction was determined in the presence of 33 μM of each test compound after 72 hr incubation.
HepG2 cells were seeded in DMEM (Invitrogen) containing 10% FBS (Corning)+glucose (4.5 g/L) for 24 hr to allow cell adhesion. For compound treatments, compounds were diluted in DMSO and the media, followed by added to the wells (24 hr after the cell seeding) to obtain the desired final concentration (33 μM, n=2). The final DMSO concentration was 1%. After 72 hr, cellular ATP contents were measured using CellTiter-Glo Luminescent Cell Viability Assay (Promega). The % ATP reduction was determined by comparing the ATP contents in the absence and the presence of test compounds.
Background: In ATP-based viability assays light output follows the ATP content of the culture.

Where [2] appears, read: Table 4, GST-tagged human CaMKIIδ.
Setting [3] is: Table 1, GST-tagged human CaMKIIδ.

The term IC50 denotes the concentration that gives 50% inhibition. Low readings indicate greater potency, high ones weaker potency. Broadly, the melting point is the temperature, or range, at which the solid turns liquid.

At human CaMKIIδ (setting [2]), `COCCOCCCOc1nn([C@H]2CC[C@H](N3C[C@@H](C)O[C@@H](C)C3)CC2)cc1Nc1ncc(-c2ccc(Cl)c(O[C@@H](C)Cn3cnnn3)c2)cn1` [Example 487, 5-(3-(((S)-1-(1H-tetrazol-1-yl)propan-2-yl)oxy)-4-chlorophenyl)-N-(1-((1r,4r)-4-((2S,6R)-2,6-dimethylmorpholino)cyclohexyl)-3-(3-(2-methoxyethoxy)propoxy)-1H-pyrazol-4-yl)pyrimidin-2-amine] yielded an IC50 of under 10 nM. In addition, the inhibition in vivo at 30 mg/kg in data set [1] was over 30%. For the molecule `COCCCOc1nn([C@H]2CC[C@H](N3[C@@H]4CC[C@H]3COC4)CC2)cc1Nc1ncc(-c2ccc(C#N)c(O[C@@H](C)Cn3cnnn3)c2)cn1` [Example 30, 2-(((S)-1-(1H-tetrazol-1-yl)propan-2-yl)oxy)-4-(2-((1-((1r,4r)-4-((1R,5S)-3-oxa-8-azabicyclo[3.2.1]octan-8-yl)cyclohexyl)-3-(3-methoxypropoxy)-1H-pyrazol-4-yl)amino)pyrimidin-5-yl)benzonitrile], the IC50 at human CaMKIIδ (setting [3]) was under 10 nM. In addition, the inhibition in vivo at 30 mg/kg in data set [1] was over 30%. `CCOCCCOc1nn([C@H]2CC[C@H](N3[C@@H]4CC[C@H]3COC4)CC2)cc1Nc1ncc(-c2ccc(C#N)c(O[C@@H](C)Cn3cnnn3)c2)cn1` [Example 36, 2-(((S)-1-(1H-tetrazol-1-yl)propan-2-yl)oxy)-4-(2-((1-((1r,4r)-4-((1R,5S)-3-oxa-8-azabicyclo[3.2.1]octan-8-yl)cyclohexyl)-3-(3-ethoxypropoxy)-1H-pyrazol-4-yl)amino)pyrimidin-5-yl)benzonitrile] yielded an IC50 on human CaMKIIδ (setting [3]) of under 10 nM. Moreover, the inhibition in vivo at 30 mg/kg in data set [1] was over 30%. `CCOCCCOc1nn([C@H]2CC[C@H](N3CCOCC3)CC2)cc1Nc1ncc(-c2ccc(C#N)c(O[C@@H](C)Cn3cnnn3)c2)cn1` [Example 33, 2-(((S)-1-(1H-tetrazol-1-yl)propan-2-yl)oxy)-4-(2-((3-(3-ethoxypropoxy)-1-((1r,4r)-4-morpholinocyclohexyl)-1H-pyrazol-4-yl)amino)pyrimidin-5-yl)benzonitrile] displayed an IC50 on human CaMKIIδ (setting [3]) of under 10 nM. Also, the inhibition in vivo at 30 mg/kg in data set [1] was over 30%. `COCCCOc1nn([C@H]2CC[C@H](N3CCOCC3)CC2)cc1Nc1ncc(-c2ccc(C#N)c(O[C@@H](C)Cn3cnnn3)c2)cn1` [Example 26, 2-(((S)-1-(1H-tetrazol-1-yl)propan-2-yl)oxy)-4-(2-((3-(3-methoxypropoxy)-1-((1r,4r)-4-morpholinocyclohexyl)-1H-pyrazol-4-yl)amino)pyrimidin-5-yl)benzonitrile] had a melting point of 153 °C. Besides, in the data set on HepG2 cells, the “% ATP reduction” value is reported as 9%. At human CaMKIIδ (setting [3]), this molecule registered an IC50 of under 10 nM. In data set [1], the inhibition in vivo at 30 mg/kg was over 30%.

Consider `C[C@@H]1CN([C@H]2CC[C@H](n3cc(Nc4ncc(-c5ccc(C#N)c(O[C@@H](C)Cn6cnnn6)c5)cn4)c(OCCC4COC4)n3)CC2)C[C@H](C)O1` [Example 477, 2-(((S)-1-(1H-tetrazol-1-yl)propan-2-yl)oxy)-4-(2-((1-((1r,4r)-4-((2S,6R)-2,6-dimethylmorpholino)cyclohexyl)-3-(2-(oxetan-3-yl)ethoxy)-1H-pyrazol-4-yl)amino)pyrimidin-5-yl)benzonitrile], for which the “% ATP reduction” value in the data set on HepG2 cells is 9%. At human CaMKIIδ (setting [2]), this molecule had an IC50 of under 10 nM.

As to `COCCOCCOc1nn([C@H]2CC[C@H](N3C[C@@H](C)O[C@@H](C)C3)CC2)cc1Nc1ncc(-c2ccc(C#N)c(O[C@@H](C)Cn3cnnn3)c2)cn1.Cl` [Example 241, 2-(((S)-1-(1H-tetrazol-1-yl)propan-2-yl)oxy)-4-(2-((1-((1r,4r)-4-((2S,6R)-2,6-dimethylmorpholino)cyclohexyl)-3-(2-(2-methoxyethoxy)ethoxy)-1H-pyrazol-4-yl)amino)pyrimidin-5-yl)benzonitrile hydrochloride], the “% ATP reduction” value in the data set with HepG2 cells is given as −2%. In addition, on human CaMKIIδ (setting [3]), the IC50 was under 10 nM. Molecule `CCOCCOc1nn([C@H]2CC[C@H](N3[C@@H]4CC[C@H]3COC4)CC2)cc1Nc1ncc(-c2ccc(C#N)c(O[C@@H](C)Cn3cnnn3)c2)cn1` [Example 12, 2-(((S)-1-(1H-tetrazol-1-yl)propan-2-yl)oxy)-4-(2-((1-((1r,4r)-4-((1R,5S)-3-oxa-8-azabicyclo[3.2.1]octan-8-yl)cyclohexyl)-3-(2-ethoxyethoxy)-1H-pyrazol-4-yl)amino)pyrimidin-5-yl)benzonitrile] gave a half-maximal inhibitory concentration (IC50) on human CaMKIIδ (setting [3]) of under 10 nM. Besides, the inhibition in vivo at 30 mg/kg in data set [1] was over 30%. As to `COCCOCCCOc1nn([C@H]2CC[C@H](N3C[C@@H](C)O[C@@H](C)C3)CC2)cc1Nc1ncc(-c2ccc(C#N)c(O[C@@H](C)Cn3cnnn3)c2)cn1` [Example 488, 2-(((S)-1-(1H-tetrazol-1-yl)propan-2-yl)oxy)-4-(2-((1-((1r,4r)-4-((2S,6R)-2,6-dimethylmorpholino)cyclohexyl)-3-(3-(2-methoxyethoxy)propoxy)-1H-pyrazol-4-yl)amino)pyrimidin-5-yl)benzonitrile], the “% ATP reduction” value in the data set on HepG2 cells is listed as 3%. Besides, the IC50 on human CaMKIIδ (setting [2]) is under 10 nM. For the same molecule, the inhibition in vivo at 30 mg/kg in data set [1] was over 30%. In turn, `COCCCOc1nn([C@H]2CC[C@H](N3C[C@@H](C)O[C@@H](C)C3)CC2)cc1Nc1ncc(-c2ccc(Cl)c(O[C@@H](C)Cn3cnnn3)c2)cn1` [Example 489, 5-(3-(((S)-1-(1H-tetrazol-1-yl)propan-2-yl)oxy)-4-chlorophenyl)-N-(1-((1r,4r)-4-((2S,6R)-2,6-dimethylmorpholino)cyclohexyl)-3-(3-methoxypropoxy)-1H-pyrazol-4-yl)pyrimidin-2-amine] yielded an IC50 on human CaMKIIδ (setting [2]) of under 10 nM. In addition, the inhibition in vivo at 30 mg/kg in data set [1] is over 30%. For `COCCCCOc1nn([C@H]2CC[C@H](N3CCOCC3)CC2)cc1Nc1ncc(-c2ccc(Cl)c(O[C@@H](C)Cn3cnnn3)c2)cn1` [Example 151, 5-(3-(((S)-1-(1H-tetrazol-1-yl)propan-2-yl)oxy)-4-chlorophenyl)-N-(3-(4-methoxybutoxy)-1-((1r,4r)-4-morpholinocyclohexyl)-1H-pyrazol-4-yl)pyrimidin-2-amine], the IC50 at human CaMKIIδ (setting [3]) was under 10 nM. With `C[C@@H]1CN([C@H]2CC[C@H](n3cc(Nc4ncc(-c5ccc(Cl)c(O[C@@H](C)Cn6cnnn6)c5)cn4)c(OCCC(C)(C)O)n3)CC2)C[C@H](C)O1` [Example 486, 4-((4-((5-(3-(((S)-1-(1H-tetrazol-1-yl)propan-2-yl)oxy)-4-chlorophenyl)pyrimidin-2-yl)amino)-1-((1r,4r)-4-((2S,6R)-2,6-dimethylmorpholino)cyclohexyl)-1H-pyrazol-3-yl)oxy)-2-methylbutan-2-ol], at human CaMKIIδ (setting [2]), the IC50 is under 10 nM. The inhibition in vivo at 30 mg/kg in data set [1] is over 30%.

At human CaMKIIδ (setting [2]), `C[C@@H](Cn1cnnn1)Oc1cc(-c2cnc(Nc3cn(C4CCC(N5CCOCC5)CC4)nc3OCc3ccnn3C)nc2)ccc1Cl` (stereo partly drawn) [Example 505, 5-(3-(((S)-1-(1H-tetrazol-1-yl)propan-2-yl)oxy)-4-chlorophenyl)-N-(3-((1-methyl-1H-pyrazol-5-yl)methoxy)-1-((1r,4r)-4-morpholinocyclohexyl)-1H-pyrazol-4-yl)pyrimidin-2-amine] came in with an IC50 of under 10 nM. For the molecule `C[C@@H](Cn1cnnn1)Oc1cc(-c2cnc(Nc3cn([C@H]4CC[C@H](N5[C@@H]6CC[C@H]5COC6)CC4)nc3OCCO)nc2)ccc1C#N` [Example 244, 2-(((S)-1-(1H-tetrazol-1-yl)propan-2-yl)oxy)-4-(2-((1-((1r,4r)-4-((1R,5S)-3-oxa-8-azabicyclo[3.2.1]octan-8-yl)cyclohexyl)-3-(2-hydroxyethoxy)-1H-pyrazol-4-yl)amino)pyrimidin-5-yl)benzonitrile], the IC50 at human CaMKIIδ (setting [3]) was under 10 nM. On human CaMKIIδ (setting [2]), `C[C@@H](Cn1cnnn1)Oc1cc(-c2cnc(Nc3cn([C@H]4CC[C@H](N5CCOCC5)CC4)nc3OCCCC#N)nc2)ccc1C#N` [Example 494, 2-(((S)-1-(1H-tetrazol-1-yl)propan-2-yl)oxy)-4-(2-((3-(3-cyanopropoxy)-1-((1r,4r)-4-morpholinocyclohexyl)-1H-pyrazol-4-yl)amino)pyrimidin-5-yl)benzonitrile] registered an IC50 of under 10 nM. The molecule `C[C@@H](Cn1cnnn1)Oc1cc(-c2cnc(Nc3cn([C@H]4CC[C@H](N5CCOCC5)CC4)nc3OCc3ccccn3)nc2)ccc1C#N` [Example 129, 2-(((S)-1-(1H-tetrazol-1-yl)propan-2-yl)oxy)-4-(2-((1-((1r,4r)-4-morpholinocyclohexyl)-3-(pyridin-2-ylmethoxy)-1H-pyrazol-4-yl)amino)pyrimidin-5-yl)benzonitrile] had an IC50 at human CaMKIIδ (setting [3]) of under 10 nM.
